Data reported in patent publication US20040044304A1, “Local drug delivery using photosensitizer-mediated and electromagnetic radiation enhanced vascular permeability” (priority 2002, published 2004).
Where two headings read alike, the source gives them in different places.

Test system: blood vessels within the dorsal window chamber
Format: in vivo, Syrian golden hamsters
Details: for Observations 24 hr post FITC-Dextran administration / Observations immediately post FITC-Dextran administration (extravasation): blue 425 nm; for Leakage of FITC-Dextran, dependence on presence of photosensitizer: light doses used in the evaluable animals of Tables 1-4
Excerpt: Syrian golden hamsters (Charles River Laboratories, Kingston, N.Y.) weighing between 60-70 gram were surgically implanted with titanium back-pack window chambers as described ([…] et al., 1980; Colantuoni et al., 1984; […] et al., 1994). Prior to the surgical procedure, the dorsal surface of the mouse was shaved with electric clippers (Sunbeam Oster 2-Speed, 150 Cadillac Lane, McMinnville, Tenn., 37110) and then the shaved skin covered in a depilatory cream (Nair, Carter Products, New York, N.Y., 10105) for 10 minutes to remove the remaining hair. A dorsal skin fold consisting of two layers of skin and muscle tissue was then sandwiched between two opposing titanium frames (Campus Research Machine Shop, University of California, San Diego 9500 Gilman Drive, La Jolla, Calif.) with a 15 mm circular opening in each. Layers of skin and muscle fascia were separated from the sub-cutaneous tissue, and removed until a thin monolayer of muscle and one layer of intact skin remained. A coverglass (Type Circle 1, Part #12-545-80 sourced from Fisher Scientific, 2761 Walnut Avenue, Tustin, Calif., 92780) held by an expansion ring in the circular window of one titanium frame was then placed on the exposed tissue to allow direct microscopic visualization of the vasculature. The window in the second opposing titanium frame was left open exposing the intact skin. Two days following the implantation of the titanium chamber, an in-dwelling PE10 catheter (VVR Scientific, Westchester, Pa.) was implanted in the carotid artery. The catheter tubing was passed sub-cutaneously from the ventral to the dorsal side of the neck, and exteriorized through the skin at the base of the chamber. The patency of the catheter was ensured by daily flushing of the in-dwelling implanted tip with 0.005-0.01 ml of heparinized saline (40 IU/ml). The heparin was sourced from Upjohn Co., 100 Route […], Prepack, N.J., 07977, and the saline from Abbott Laboratories, North Chicago, Ill., 60064. Microvascular observations using an intra-vital microscope were not undertaken until at least 4 days post-chamber implantation to mitigate against post-surgical trauma, and to confirm that blood vessels within the chamber were functioning and intact and patent. A chamber was considered suitable for subsequent studies if microscopic examination of the preparation met the following criteria (as applied in […] et al., 1994): The intra-vital microscopic studies were undertaken on un-sedated animals held in a Plexiglass tube (Campus Research Machine Shop, University of California, San Diego 9500 Gilman Drive, La Jolla, Calif.) from which the window chamber sandwich protruded horizontally, allowing visualization of the chamber on the microscope stage. The Plexiglass tube acted to restrain the animals without impeding respiration. The intra-vital microscopy was performed using a Leitz Ortholux II (McBain Instruments, Inc., 9601 […] Avenue, Chatsworth, Calif., 91311) fitted with a Leitz Wetzlar 25× saline immersion objective lens, 0.6 numerical aperture (McBain Instruments, Inc., 9601 […] Avenue, Chatsworth, Calif., 91311), a Leitz Wetzlar 10× dry Planfluotar lens, 0.3 numerical aperture (McBain Instruments, Inc., 9601 […] Avenue, Chatsworth, Calif., 91311) and a Leitz Wetzlar 4× EF dry lens, 0.12 numerical aperture (McBain Instruments, Inc., 9601 […] Avenue, Chatsworth, Calif., 91311). A 100 Watt Hg light source (Olympus Corporation, 2 Corporate Center Drive, Melville, N.Y., 11747-3157) was used for both trans- and epi-illumination. For the trans-illumination studies the light was filtered using a 420 nm blue filter which selectively passed light in the region of the maximum absorbance band of hemoglobin, causing the red blood cells to appear as dark objects against a gray background. In addition, a heat filter was placed in the light path prior to the condenser to prevent hyperthermic effects on the tissue being examined.

| SMILES | Observations 24 hr post FITC-Dextran administration (hamster A69, SnET2 1.0 mg/kg i.c., 25 J/cm^2, 44 mW/cm^2) | Observations immediately post FITC-Dextran administration (extravasation) (hamster A69, SnET2 1.0 mg/kg i.c., 25 J/cm^2, 44 mW/cm^2, FITC-Dextran approx. 45 min post PhotoPoint therapy) | Observations 24 hr post FITC-Dextran administration (hamster A70, SnET2 1.0 mg/kg i.c., 50 J/cm^2, 44 mW/cm^2) | Observations immediately post FITC-Dextran administration (extravasation) (hamster A70, SnET2 1.0 mg/kg i.c., 50 J/cm^2, 44 mW/cm^2, FITC-Dextran approx. 60 min post PhotoPoint therapy) | Effect on venules and veins during PhotoPoint therapy (hamster, in vivo) | Focal constrictions apparent in arterioles and arteries, time following the commencement of PhotoPoint therapy (hamster, in vivo) [s] | Leakage of FITC-Dextran, dependence on presence of photosensitizer | Observations immediately post FITC-Dextran administration (extravasation) (hamster A41, MV6401 0.05 mg/kg i.c., 50 J/cm^2, 80 mW/cm^2, FITC-Dextran approx. 30 min post PhotoPoint therapy) | Observations 24 hr post FITC-Dextran administration (hamster A46, MV6401 0.15 mg/kg i.c., 50 J/cm^2, 56.6 mW/cm^2) | Observations immediately post FITC-Dextran administration (extravasation) (hamster A46, MV6401 0.15 mg/kg i.c., 50 J/cm^2, 56.6 mW/cm^2, FITC-Dextran approx. 50 min post PhotoPoint therapy) | Dilation apparent in venules and veins, time following the commencement of PhotoPoint therapy (hamster, in vivo) [s] | Edema apparent in tissue in chamber, 24 hr post FITC-Dextran administration (hamster, in vivo, 0.05 mg/kg) | Vascular damage, 24 hr post FITC-Dextran administration (hamster, in vivo, 0.05 mg/kg) |
| --- | --- | --- | --- | --- | --- | --- | --- | --- | --- | --- | --- | --- | --- |
| CCOC(=O)C1=Cc2c3nc(cc4nc(cc5[n-]c(cc6[n-]c2c(C)c6CC)c(C)c5CC)C(C)=C4CC)[C@@H](C)[C@]13CC.[Cl-].[Cl-].[Sn] (racemic) [SnET2, tin ethyl etiopurpurin] | Results as for Animal A35. | Results as for Animal A35. | Results as for Animal A35. | Results as for Animal A35. | some minor constriction | ≤ 30 | only occurred when the photosensitizer (either MV6401 or SnET2) was present |  |  |  |  |  |  |
| C=Cc1c(C)c2[n]3c1=CC1=NC(=Cc4c(C)c5c([n]4[In]3[Cl])C(=C3N=C(C=2)[C@@H](C)[C@@H]3CCC(=O)OC)CC5=O)C(CC)=C1C [MV6401, indium methyl pyropheophorbide] |  |  |  |  |  | ≤ 30 | only occurred when the photosensitizer (either MV6401 or SnET2) was present | Results as for Animal A35 | Results as for Animal A35. | Results as for Animal A35. | ≤ 30 | vascular damage. Severe | Gross and microscopic |
